The values below are quoted from earlier work in publication PMC7315836 (Journal of medicinal chemistry, 2020).

One may read the IC50 as the concentration at which inhibition is half-maximal. Usually Ki stands for a dissociation constant, usually derived from enzyme kinetics or from competition with a known ligand. For orientation: EC50 means the concentration at which the effect is half-maximal.

For series [1], the system named is SARS-CoV.
The subject of series [2] is MERS-CoV.
Series [3] relates to human aortic endothelial cells. As to conditions: 100 μM.
In a further series the test system is cathepsin L. As to conditions: cathepsin L inhibition assay.
Series [4] relates to SARS-CoV-2.
A further series has as its system TMPRSS2. The note with it: by inhibiting TMPRSS2 activity.
The subject of series [5] is SARS-CoV. The source holds these as a separate data set.
The test system of series [6] is HCoV-229E.
In a further series the test system is furin. As to conditions: HEK293 cells.
For series [7], the system named is ACE2. The note with it: read-out: IC50, ACE2 catalytic activity.
In series [8] the target is TACE (TNF-α converting enzyme). As to conditions: read-out: IC50, ACE2 shedding.
The conditions of series [9]: acute toxicity, mice.
Series [10] has as its system MERS-CoV. This is another data set of the same source.
Series [11] relates to MERS-CoV. The source holds these as a separate data set.
The subject of series [12] is ACE2.
The target of series [13] is ACE2. This is another data set of the same source.
Series [14] has as its system SARS-CoV-2 S-mediated membrane fusion. As to conditions: fusion inhibitory assay.
Series [15] has as its system MERS-CoV. The note with it: mouse, in vivo.
Series [16] deals with HCoV-OC43. As to conditions: 5 mg/kg.
Assay in series [17]: not given
The source holds these as a separate data set.

Series [18] concerns HCoV-229E. The note with it: HCoV-229E pseudovirus.
The next series has as its system HCoV-NL63. As to conditions: HCoV-NL63 pseudovirus.
The test system of series [19] is HCoV-OC43. As to conditions: HCoV-OC43 pseudovirus.
Series [20] relates to SARS-CoV-2. As to conditions: SARS-CoV-2 pseudovirus assay.
For series [21], the system named is SARS-CoV. The source holds these as a separate data set.

Like-named read-outs stand apart in the source and are kept apart here.

Take `COc1ccc(S(=O)(=O)O)cc1/N=N/c1c(S(=O)(=O)O)cc2cc(Nc3nc(Nc4ccccc4)nc(Nc4cc(C)c(/N=N/c5cc(S(=O)(=O)O)cc6cc(S(=O)(=O)O)cc(O)c56)cc4OC)n3)ccc2c1O` [ADS-J1 (15), ADS-J1]: the concentration for half-maximal inhibition (IC50) with SARS-CoV [1] was 3.89 µM; in the series with coronaviruses it was 0.6 to 3.89 µM; with MERS-CoV [2], 0.6 µM.
Turning to `CC(C)(C)OC(=O)N[C@@H](Cc1c[nH]c2ccccc12)C(=O)NNC(=O)OCC(=O)N1CCCc2ccccc21` [CID23631927 (19), CID 23631927], the toxicity result in series [3] was “did not show any sign of toxicity”. For the same molecule, the IC50 in the series on cathepsin L was 0.0069 µM.
On to `CCc1ccccc1NC(=O)CSC(=O)NNC(=O)[C@H](Cc1c[nH]c2ccccc12)NC(=O)OC(C)(C)C` [CID 16725315 (18), CID 16725315], for which, in the series with cathepsin L, the IC50 is 0.056 µM.
As to `CN(C)C(=O)COC(=O)Cc1ccc(OC(=O)c2ccc(NC(=N)N)cc2)cc1` [Camostat (22), Camostat], the “viral entry of SARS-CoV-2” value in the series with SARS-CoV-2 [4] was “could prevent the viral entry of SARS-CoV-2”. Besides, the “concentration preventing SARS-CoV infections” value with TMPRSS2 was 10 µM.
For `CCN(CC)CCCC(C)Nc1ccnc2cc(Cl)ccc12` (stereo not shown) [Chloroquine (4), Chloroquine], the “toxicity that could be caused” value was “ventricular arrhythmias,[72] QT prolongation,[72],[73] retinopathy,[74] and other cardiac-related toxicity”. Further, the IC50 in the series on coronaviruses was 1.13 to 4.4 µM. The ED50 with SARS-CoV [5] was 4.4 µM.
As for `CCC[C@@H]([C@@H](CC(C)C)C(=O)N[C@@H](CCCCNC(=O)OCc1ccccc1)C(=O)Nc1nccs1)N(O)C=O` [GW280264X (6), GW280264X], in the series with ADAM17, the “concentration reducing shedding of ACE2” value is on record as 1 nM.
For `CCN(CCO)CCCC(C)Nc1ccnc2cc(Cl)ccc12` (stereo not shown) [Hydroxychloroquine (5), Hydroxychloroquine], the “toxicity that could be caused” value was “ventricular arrhythmias,[72] QT prolongation,[72],[73] retinopathy,[74] and other cardiac-related toxicity”.
Take `O=C(NC(Cc1ccccc1)C(=O)N1CCC(O)(c2ccc(Br)cc2)CC1)c1ccccc1` (stereo not shown) [K22 (2), K22]: the IC50 with HCoV-229E [6] is 0.7 µM.
Consider `CN1CCN(C(=O)N[C@@H](Cc2ccccc2)C(=O)N[C@H](/C=C/S(=O)(=O)c2ccccc2)CCc2ccccc2)CC1` [K11777 (21), K11777], for which the 50% inhibitory concentration (IC50) in the series with coronaviruses was 0.00068 to 0.0461 µM.
As for `CC(C)(C)[C@H](NC(=O)[C@H](CCONC(=N)N)NC(=O)Cc1ccc(CNC(=N)N)cc1)C(=O)N[C@@H](CCONC(=N)N)C(=O)NCc1ccc(C(=N)N)cc1` [MI-1851 (24), MI-1851], in the series with furin, the “proteolytic processing of SARS-CoV-2 S protein by endogenous furin” value is “could prevent proteolytic processing of the S protein”.
Turning to `NCCNCCN1CC1` [NAAE (3), N-(2-amino-ethyl)-1 aziridine-ethanamine], the half-inhibitory concentration (IC50) with ACE2 [7] was 57 µM.
For `CC(C)CC(CC(=O)NO)C(=O)NC(Cc1ccc2ccccc2c1)C(=O)NC(C)C(N)=O` (stereo not shown) [TAPI-0 (7), TAPI-0], in series [8], the concentration for half-maximal inhibition (IC50) is 0.1 µM.
In the case of `O=C(OC[C@H]1O[C@@H](OC(=O)c2cc(O)c(O)c(O)c2)[C@H](OC(=O)c2cc(O)c(O)c(O)c2)[C@H](OC(=O)c2cc(O)c(O)c(O)c2)[C@@H]1O)c1cc(O)c(O)c(O)c1` [TGG (12), TGG], the 50% lethal dose in series [9] is recorded as ~ 456 mg/kg.
Turning to `Cc1nc(Nc2ncc(C(=O)Nc3c(C)cccc3Cl)s2)cc(N2CCN(CCO)CC2)n1` [dasatinib (29), dasatinib], the values for the concentration for half-maximal inhibition (IC50) with MERS-CoV [10] and with coronaviruses were 5.4 µM and 2.1 to 5.4 µM, respectively.
With `O=c1cc(-c2ccc(O)c(O)c2)oc2cc(O)cc(O)c12` [luteolin (13), luteolin], in series [9], the 50% lethal dose was 232.2 mg/kg.
For `CN1CCN(CCOc2cc(OC3CCOCC3)c3c(Nc4c(Cl)ccc5c4OCO5)ncnc3c2)CC1` [saracatinib (30), saracatinib], the concentration for half-maximal inhibition (IC50) is 2.9 µM with MERS-CoV [11] and 2.4 to 5.1 µM with coronaviruses.
On to DX600, for which the stability entry in the series with ACE2 [12] is “chemically stable and not hydrolyzable by ACE2”. The inhibitory constant (Ki) on ACE2 [13] is 0.0028 µM. Moreover, the “inhibition of ACE activity” value in the series with ACE is reported as “did not inhibit ACE activity”.
In the case of EK1, the IC50 in series [14] is 0.19 µM; in the series with HCoV-229E [18] it was 3.35 µM; in the series on HCoV-NL63, 6.02 µM; with HCoV-OC43 [19] it was 1.81 µM; with SARS-CoV-2 [20], 2.38 µM. For the same molecule, the “protection of mice against MERS-CoV infection” value with MERS-CoV [15] was “nearly completely protected”. Also, the “protection of mice from HCoV-OC43” value in the series with HCoV-OC43 [16] was “nearly completely protected”. In [17], the “cytotoxic concentration (not cytotoxic up to)” value is listed as over 1 mM.
As for MDL28170 [MDL28170 (17)], in the series with SARS-CoV [21], the EC50 was about 0.1 µM.
Teicoplanin: the half-maximal inhibitory concentration (IC50) in the series with SARS-CoV-2 pseudoviruses was 1.66 µM.
